Source: patent publication US11826453B2, “Hair care composition comprising piroctone olamine” (Conopco, Inc., priority 2019, dated 2023)

Assay: Octopirox degradation under cool white light (LCMS / UPLC-UV)
Type: physicochemical
Conditions: 24 hours
Method: The cool white light (CWL) irradiation was carried out in an X-Rite (Macbeth) Spectra Light III chamber. CWL mode was chosen which provides stable irradiation mimicking the indoor light. The intensity of light was fixed which estimated at 6 μw/cm2 for UVA and 1.5 μw/cm^2 for UVB. The chamber temperature was equal to the room temperature (20±2° C.). The sample was placed in a line close to the center of the chamber. After 24 hours, the sample was analyzed by LCMS (Water UPLC coupled with Quatro Micro MS), by quantitatively measured using UPLC-UV analysis following DPS derivatization.
The separation was performed by a UPLC BEH C18 column and the mobile phase was acetonitrile/water (60/40, 0.1% formic acid) in isocratic elution. Electrospray ionization in positive mode was applied for MS scan.

quantity of Octopirox® after cool white light (cool white light (indoor light; 6 μw/cm2 UVA, 1.5 μw/cm^2 UVB), 20±2° C.): reduced | compound of formula 1 in the degradation product (cool white light, LCMS): no compound of formula 1 can be detected
SMILES: Cc1cc(CC(C)CC(C)(C)C)n(O)c(=O)c1.NCCO (centres unmarked) [Octopirox®, Piroctone olamine]
